From patent publication US11633484B2, “Method for improving the oral bioavailability of a drug” (PharmaCytics B.V., priority 2017, dated 2023)

What was measured:
[1] = Determination of oral bioavailability of Abiraterone conjugates (plasma AUClast after oral gavage); type: in vivo; parameters: key to AUClast (total amount abiraterone and conjugate): AUClast value for Zytiga; +: 1.1-6-fold increase compared to Zytiga; ++: >7-fold increase compared to Zytiga; details: female Beagle dogs; for AUClast (total amount abiraterone and conjugate): single dose 15 μmole/kg by oral gavage, 24 h, fold increase compared to Zytiga; for Conversion rate to Abiraterone: AUClast Abiraterone/AUClast conjugate + AUClast Abiraterone × 100%, oral 15 μmole/kg
Description: (§1) Relative and absolute bioavailability may be determined in different animal models and according to different protocols. The following protocol is typical for determining bioavailability in female Beagle dogs. The animals were deprived from food over a time period of 8 h prior to administration and 2 h after administration of the test molecules. Water was supplied without limitation.
(§2) On the study day, the animals received test molecules, at a single dose of 15 μmole/kg, by oral gavage, formulated in mixtures of propylene glycol, ethanol and 0.9% NaCl+5% mannitol in water. Blood samples were collected from the jugular vein on the following time points: 0.25, 0.5, 1, 2, 4, 8 and 24 hours after dosing.
(§3) Pharmacokinetic parameters were calculated from concentration versus time data using non-compartmental pharmacokinetic methods using Phoenix pharmacokinetic software. Data are compared to Zytiga to establish improvement of its oral bioavailability by the Abiraterone conjugates.

xenograft mouse model = details: oral administration; cited from earlier work
[2] = Determination of oral bioavailability of Kalydeco conjugates; type: in vivo, Beagle dogs; parameters: key to AUClast (total amount Kalydeco and conjugate): AUClast value for Kalydeco; +: 1.1-6-fold increase compared to Kalydeco; details: for AUClast (total amount Kalydeco and conjugate): as Example 11 (Beagle dogs, oral gavage), fold increase compared to Kalydeco
Description: as §1, §2, §3
In a similar fashion as described in Example 11, the bioavailability increase of Kalydeco conjugate 17 was determined.

[3] = orally administered; cited from earlier work
β-glucosidase = assay: Enzymatic removal of the glucose moiety (treatment with β-glucosidase), conversion to parent drug
[4] = oral application in rat; cited from earlier work
[5] = Determination of oral bioavailability of Rotigotine conjugate; type: in vivo, Beagle dogs; parameters: key to AUClast (total amount Rotigotine and conjugate): AUClast value for Rotigotine; ++: >6-fold increase compared to Rotigotine; details: for AUClast (total amount Rotigotine and conjugate): as Example 11 (Beagle dogs, oral gavage), fold increase compared to Rotigotine
Description: as §1, §2, §3
In a similar fashion as described in Example 11, the bioavailability increase of Rotigotine conjugate 28 was determined.

[6] = oral administration, rat; cited from earlier work

SMILES	AUClast (total amount abiraterone and conjugate) [1]	Conversion rate to Abiraterone [1]	further results
CC(=O)O[C@H]1CC[C@@]2(C)C(=CC[C@@H]3[C@@H]2CC[C@]2(C)C(c4cccnc4)=CC[C@@H]32)C1 [3-O-Acetate (Zytiga), reference compound]	o		
COc1cc(C)c2cc(O)c(C)cc2c1C(C)C [7-hydroxy-3-methoxy cadalene]			Reduction of tumor volume (xenograft mouse model): did not show tumor volume reduction
CC(C)(C)c1cc(C(C)(C)C)c(NC(=O)c2c[nH]c3ccccc3c2=O)cc1O [Kalydeco, reference compound]			AUClast (total amount Kalydeco and conjugate) [2]: o
CN(CO[C@H]1CC[C@@]2(C)C(=CCC3[C@@H]2CC[C@]2(C)C(c4cccnc4)=CC[C@@H]32)C1)C(=O)O[C@@H]1O[C@H](CO)C(O)[C@H](O)C1O (stereo partly drawn) [Compound 7a]		+++ (41-50%)	
C[C@@H]1C[C@H]2[C@@H]3CCC4=CC(=O)C=C[C@]4(C)[C@@]3(F)[C@@H](O)C[C@]2(C)[C@@]1(O)C(=O)COC1O[C@H](CO)[C@@H](O)[C@H](O)[C@H]1O (stereo partly drawn) [dexamethasone glucoside]			Fraction of oral dose that reached the caecum as a free steroid [3]: ~60%
CCCN(CO[C@H]1CC[C@@]2(C)C(=CCC3[C@@H]2CC[C@]2(C)C(c4cccnc4)=CC[C@@H]32)C1)C(=O)O[C@@H]1O[C@H](CO)C(O)[C@H](O)C1O (stereo partly drawn) [Compound 7c]	++ (>7-fold increase compared to Zytiga)	+++ (41-50%)	Conversion to Abiraterone and Kalydeco, respectively, upon treatment with β-glucosidase (β-glucosidase): readily converted
C[C@]12C=CC(=O)C=C1CC[C@@H]1[C@@H]2[C@@H](O)C[C@@]2(C)[C@H]1CC[C@]2(O)C(=O)CO[C@@H]1O[C@H](CO)[C@@H](O)[C@H](O)[C@H]1O [prednisolone-21-O-β-D-glucoside]			Increase of serum levels with respect to prednisolone [4]: two-fold increase
C=CCN(CO[C@H]1CC[C@@]2(C)C(=CCC3[C@@H]2CC[C@]2(C)C(c4cccnc4)=CC[C@@H]32)C1)C(=O)O[C@@H]1O[C@H](CO)C(O)[C@H](O)C1O (stereo partly drawn) [Compound 7l]	++ (>7-fold increase compared to Zytiga)	+++ (41-50%)	
CCN(CO[C@H]1CC[C@@]2(C)C(=CCC3[C@@H]2CC[C@]2(C)C(c4cccnc4)=CC[C@@H]32)C1)C(=O)O[C@@H]1O[C@H](CO)C(O)[C@H](O)C1O (stereo partly drawn) [Compound 7b]	+ (1.1-6-fold increase compared to Zytiga)	++++ (>51%)	
C[C@]12CC[C@H](OCN(C(=O)O[C@@H]3O[C@H](CO)C(O)[C@H](O)C3O)C3CCC3)CC1=CCC1[C@@H]2CC[C@]2(C)C(c3cccnc3)=CC[C@@H]12 (stereo partly drawn) [Compound 7g]	++ (>7-fold increase compared to Zytiga)	++ (21-40%)	
CCCN(COc1cccc2c1CC[C@H](N(CCC)CCc1cccs1)C2)C(=O)O[C@@H]1O[C@H](CO)[C@@H](O)[C@H](O)[C@H]1O [Compound 28]			Conversion rate to Rotigotine ([5]; AUClast Rotigotine/(AUClast conjugate + AUClast Rotigotine) × 100%, as Example 11): ++++ (>51%); AUClast (total amount Rotigotine and conjugate) [5]: ++ (>6-fold increase compared to Rotigotine)
CCCN(CCc1cccs1)[C@H]1CCc2c(O)cccc2C1 [Rotigotine, reference compound]			AUClast (total amount Rotigotine and conjugate) [5]: o
CCCN(COc1cc(NC(=O)c2c[nH]c3ccccc3c2=O)c(C(C)(C)C)cc1C(C)(C)C)C(=O)O[C@@H]1O[C@H](CO)[C@@H](O)[C@H](O)[C@H]1O [Compound 17]			Conversion rate to Kalydeco ([2]; AUClast Kalydeco/AUClast conjugate + AUClast Kalydeco × 100%, as Example 11): ++++ (>51%); AUClast (total amount Kalydeco and conjugate) [2]: + (1.1-6-fold increase compared to Kalydeco); Conversion to Abiraterone and Kalydeco, respectively, upon treatment with β-glucosidase (β-glucosidase): readily converted
CN(CO[C@H]1CC[C@@]2(C)C(=CCC3[C@@H]2CC[C@]2(C)C(c4cccnc4)=CC[C@@H]32)C1)C(=O)O[C@@H]1O[C@H](CO)C(O)[C@H](O)C1O (stereo partly drawn) [Compound 13]	++ (>7-fold increase compared to Zytiga)	++ (21-40%)	
C[C@]12CC[C@H](O[C@@H]3O[C@H](CO)[C@@H](O)[C@H](O)[C@H]3O)CC1=CCC1[C@@H]2CC[C@]2(C)C(c3cccnc3)=CC[C@@H]12 (stereo partly drawn) [3-O-β-Glucoside (33), 3-O-β-D-Glucopyranosyl-abiraterone, reference compound]	+ (1.1-6-fold increase compared to Zytiga)	+ (1-20%)	
COc1cc(C)c2cc(O[C@@H]3O[C@H](CO)[C@@H](O)[C@H](O)[C@H]3O)c(C)cc2c1C(C)C			Reduction of tumor volume (xenograft mouse model): 50%
CO[C@@H]1O[C@H](COC(=O)NC(N)=NC(=O)Cc2c(Cl)cccc2Cl)[C@@H](O)[C@H](O)[C@H]1O			Relative Cmax compared to guanfacine [6]: lower value
